Data reported in patent US20250255845A1, “USE OF INTERLEUKIN (IL)-17A INHIBITOR IN PREPARATION OF MEDICAMENT FOR TREATING INFLAMMATORY DISEASE” (Xiangnan University, priority 2024, published 2025).

Experiments:
IL-23 mRNA = assay: Real-time fluorescence quantitative PCR, LPS-induced IL-23 mRNA in RAW264.7 cells; assay type: cell-based, mouse
Procedure: (§1) RAW264.7 cell culture: mouse mononuclear macrophages (RAW264.7, ATCC) are cultured in a complete medium containing 10% fetal bovine serum (FBS), 1% double antibodies (penicillin and streptomycin), and 89% DMEM at 37° C. and 5% CO2. In this experiment, RAW264.7 cells from passages 3 to 8 are used for related test.
(§2) LPS (100 ng/ml) is added for stimulation, with or without Tan, and the cell supernatant is collected to detect the contents of NO, IL-23, IL-17A, TNF-α, and IL-6 in the cell supernatant. The cell lysate is collected and the protein expressions (STAT3, p-STAT3 (Ser727), and p-STAT3 (Tyr705)) are detected by Western blot. Total cell RNA is extracted and real-time fluorescence quantitative polymerase chain reaction (PCR) is conducted to detect the expression levels of IL-23, IL-17A, TNF-α, and IL-6 mRNA.
(§3) RAW264.7 cells were inoculated into 6-well plate and the cell density was adjusted to 5.0×10^6 cells/well. […] The fluorescence intensity of each sample was detected according to the instructions of the real-time fluorescence quantitative PCR kit and specific primers (Table 1) (cycle conditions: enzyme activation 95° C. for 3 min, 1 cycle; denaturation 95° C. for 15 s, annealing/extension 60° C. for 1 min, 40 cycles). The mRNA expression level of each group was normalized with the GAPDH expression level, and the relative expression of mRNA was calculated using the 2^−ΔΔCt method.

IL-6 mRNA = assay: Real-time fluorescence quantitative PCR, LPS-induced IL-6 mRNA in RAW264.7 cells; assay type: cell-based, mouse
Procedure: as §1, §2, §3

TNF-α = assay: ELISA of LPS-induced TNF-α secretion in RAW264.7 cells; assay type: cell-based, mouse
Procedure: as §1, §2
RAW264.7 cells in the logarithmic growth phase were inoculated into a 6-well plate and the cell density was adjusted to 5.0×10^5 cells/well. After culturing for 24 h, the cells were stably adhered to the plate. The original medium was removed and different concentrations (5, 10, 20, 40 μM) of Tan were added to allow pretreatment for 1 h. […] The OD450 nm value of the cell supernatant was detected according to the instructions of the TNF-α and IL-6 ELISA kits, and the content of pro-inflammatory factors (TNF-α and IL-6) in the cell supernatant was calculated.

[1] = tested on: IMQ-induced psoriasis mice; assay: H&E histological evaluation of dorsal skin of IMQ-induced psoriasis mice; assay type: in vivo, Balb/c mice; conditions: dose-dependent
Procedure: Balb/c mice (female, 6-8 weeks, 20+2 g), with certificate number [SCXK (Xiang) 2021-0002], were purchased from Hunan SJA Laboratory Animal (Changsha, China). All mice were housed in an specific pathogen free (SPF)-grade animal room with a 12 h light/12 h dark cycle, and experiments were started after the mice were acclimated for one week. Next, 96 mice were randomly divided into 12 groups (8 mice/group), including Control group, Control solvent (white vaseline) group, IMQ group, IMQ solvent (white vaseline) group, preventive administration of positive medicament Clo group (IMQ+Clo 55 mg), therapeutic administration of positive medicament group (IMQ+Clo (A) 55 mg), preventive administration of Tan low-dose group (IMQ+Tan 40 μg/cm^2), medium-dose group (IMQ+Tan160 μg/cm^2), and high-dose group (IMQ+Tan 640 μg/cm^2), and therapeutic administration of Tan low-dose group (IMQ+Tan (A) 40 μg/cm^2), medium-dose group (IMQ+Tan (A) 160 μg/cm^2), and high-dose group (IMQ+Tan (A) 640 μg/cm^2). After the mice were anesthetized, a 2 cm×3 cm area on the back was selected for hair removal. Modeling began 48 h after hair removal, and all modeling mice were applied with 65 mg (55 mg on the back and 5 mg on each ear) of IMQ cream every morning for 10 d. […]

NO = assay: Griess assay of LPS-induced NO production in RAW264.7 cells; assay type: cell-based, mouse
Procedure: as §1, §2
RAW264.7 cells in the logarithmic growth phase were inoculated into a 48-well plate and the cell density was adjusted to 1.0×10^5 cells/well. After cultured for 24 h, the cells were stably adhered to the plate. The original medium was removed and different concentrations (5, 10, 20, 40 μM) of Tan were added to allow pretreatment for 1 h. […] OD540 nm value of the cell supernatant was detected according to the instructions of a Griess kit, and the NO content in the cell supernatant was calculated.

[2] = 5-40 μM, 24 h, vs LPS, P<0.001, dose-dependent
[3] = 5-40 μM, 24 h, vs LPS group, P<0.001, dose-dependent

Compound: COc1ccc(-c2cc(=O)c3c(OC)c(OC)c(OC)c(OC)c3o2)cc1 [Tan, tangeretin]
- inhibitory effect on IL-23 mRNA compared with positive control Clo (IL-23 mRNA; 40 μM): comparable to that of the positive control Clo
- relative expression level of IL-23 mRNA (IL-23 mRNA; [2]): significantly decreased
- inhibitory effect on IL-6 mRNA compared with positive control Clo (IL-6 mRNA; 40 μM): comparable to that of the positive control Clo
- relative expression level of IL-6 mRNA (IL-6 mRNA; [2]): significantly decreased
- inhibitory effect on TNF-α secretion compared with positive control Clo (TNF-α; 40 μM): comparable to that of the positive control
- TNF-α level in the cell supernatant (TNF-α; [3]): significantly decreased
- H&E histology of dorsal skin (epidermal thickness, hyperkeratosis, inflammatory infiltration) ([1]; preventive Tan group vs IMQ group): reduced epidermal tissue thickness, reduced hyperkeratosis, and slight inflammatory cellular infiltration
- H&E histology of dorsal skin (epidermal thickness, hyperkeratosis, inflammatory infiltration) ([1]; therapeutic Tan group, especially high-dose, vs IMQ group): reduced epidermal tissue thickness, reduced hyperkeratosis, and slight inflammatory cellular infiltration
- inhibitory effect on NO compared with positive control Clo (NO; 40 μM, 24 h): comparable to that of the positive control
- NO content in the cell supernatant (NO; [3]): significantly reduced
- inhibitory effect on the production of NO (NO; 48 h): strong inhibitory effect
